Assay results reported in the NIST ThermoML archive (doi:10.1021/je0341413).

Assays:
[1] = xn = mol fraction of the nth substance listed; settings: 101.3 kPa, Liquid
[2] = Liquid; for viscosity: 101.3 kPa; for mass density: 101.33 kPa

CCOC(=O)OCC [diethyl carbonate] + CCCO
[1]
Settings | viscosity [mPa·s]
293.15 K, x1 = 0.0504 | 1.9
293.15 K, x1 = 0.1007 | 1.662
293.15 K, x1 = 0.2008 | 1.325
293.15 K, x1 = 0.3019 | 1.115
293.15 K, x1 = 0.4004 | 0.998
293.15 K, x1 = 0.5039 | 0.921
293.15 K, x1 = 0.6031 | 0.877
293.15 K, x1 = 0.7007 | 0.84
293.15 K, x1 = 0.7999 | 0.808
293.15 K, x1 = 0.9132 | 0.786
293.15 K, x1 = 0.9531 | 0.785
293.15 K, x1 = 1 | 0.795
298.15 K, x1 = 0.0515 | 1.689
298.15 K, x1 = 0.0993 | 1.482
298.15 K, x1 = 0.2012 | 1.178
298.15 K, x1 = 0.3007 | 1.005
298.15 K, x1 = 0.4026 | 0.904
298.15 K, x1 = 0.5022 | 0.845
298.15 K, x1 = 0.6029 | 0.801
298.15 K, x1 = 0.7041 | 0.762
298.15 K, x1 = 0.8087 | 0.73
298.15 K, x1 = 0.9065 | 0.721
298.15 K, x1 = 0.9523 | 0.729
298.15 K, x1 = 1 | 0.749
303.15 K, x1 = 0.0464 | 1.494
303.15 K, x1 = 0.0963 | 1.315
303.15 K, x1 = 0.1968 | 1.062
303.15 K, x1 = 0.2981 | 0.907
303.15 K, x1 = 0.3987 | 0.818
303.15 K, x1 = 0.4958 | 0.771
303.15 K, x1 = 0.5991 | 0.732
303.15 K, x1 = 0.6967 | 0.703
303.15 K, x1 = 0.8063 | 0.678
303.15 K, x1 = 0.908 | 0.674
303.15 K, x1 = 0.9448 | 0.682
303.15 K, x1 = 1 | 0.699
313.15 K, x1 = 0.05 | 1.214
313.15 K, x1 = 0.1018 | 1.087
313.15 K, x1 = 0.2001 | 0.911
313.15 K, x1 = 0.3017 | 0.795
313.15 K, x1 = 0.3958 | 0.727
313.15 K, x1 = 0.504 | 0.674
313.15 K, x1 = 0.6009 | 0.642
313.15 K, x1 = 0.7032 | 0.624
313.15 K, x1 = 0.7998 | 0.61
313.15 K, x1 = 0.8997 | 0.608
313.15 K, x1 = 0.9468 | 0.612
313.15 K, x1 = 1 | 0.623

CCOC(=O)OCC [diethyl carbonate] + CCO
[1]
Settings | viscosity [mPa·s]
293.15 K, x1 = 0.0503 | 1.098
293.15 K, x1 = 0.0997 | 1.021
293.15 K, x1 = 0.198 | 0.906
293.15 K, x1 = 0.3006 | 0.835
293.15 K, x1 = 0.4031 | 0.792
293.15 K, x1 = 0.5031 | 0.77
293.15 K, x1 = 0.6063 | 0.761
293.15 K, x1 = 0.6898 | 0.755
293.15 K, x1 = 0.8066 | 0.759
293.15 K, x1 = 0.895 | 0.77
293.15 K, x1 = 0.945 | 0.776
293.15 K, x1 = 1 | 0.795
298.15 K, x1 = 0.0496 | 1.05
298.15 K, x1 = 0.0973 | 0.943
298.15 K, x1 = 0.1963 | 0.835
298.15 K, x1 = 0.2985 | 0.771
298.15 K, x1 = 0.398 | 0.728
298.15 K, x1 = 0.5057 | 0.714
298.15 K, x1 = 0.6032 | 0.708
298.15 K, x1 = 0.7035 | 0.703
298.15 K, x1 = 0.7999 | 0.702
298.15 K, x1 = 0.8989 | 0.714
298.15 K, x1 = 0.9283 | 0.721
298.15 K, x1 = 1 | 0.749
303.15 K, x1 = 0.0491 | 0.899
303.15 K, x1 = 0.0984 | 0.834
303.15 K, x1 = 0.1952 | 0.754
303.15 K, x1 = 0.2961 | 0.704
303.15 K, x1 = 0.3946 | 0.673
303.15 K, x1 = 0.4859 | 0.661
303.15 K, x1 = 0.5995 | 0.649
303.15 K, x1 = 0.6959 | 0.648
303.15 K, x1 = 0.7862 | 0.649
303.15 K, x1 = 0.8911 | 0.661
303.15 K, x1 = 0.9254 | 0.669
303.15 K, x1 = 1 | 0.699
313.15 K, x1 = 0.0499 | 0.777
313.15 K, x1 = 0.102 | 0.74
313.15 K, x1 = 0.2038 | 0.676
313.15 K, x1 = 0.3116 | 0.636
313.15 K, x1 = 0.4001 | 0.613
313.15 K, x1 = 0.4971 | 0.6
313.15 K, x1 = 0.6023 | 0.59
313.15 K, x1 = 0.7058 | 0.591
313.15 K, x1 = 0.8065 | 0.596
313.15 K, x1 = 0.9022 | 0.608
313.15 K, x1 = 0.9518 | 0.616
313.15 K, x1 = 1 | 0.623

CCOC(=O)OCC [diethyl carbonate] + CO
[1]
Settings | viscosity [mPa·s]
293.15 K, x1 = 0.0513 | 0.592
293.15 K, x1 = 0.1002 | 0.596
293.15 K, x1 = 0.1972 | 0.608
293.15 K, x1 = 0.2839 | 0.623
293.15 K, x1 = 0.4038 | 0.642
293.15 K, x1 = 0.5 | 0.657
293.15 K, x1 = 0.5933 | 0.675
293.15 K, x1 = 0.6417 | 0.685
293.15 K, x1 = 0.7996 | 0.722
293.15 K, x1 = 0.9014 | 0.75
293.15 K, x1 = 0.9709 | 0.782
293.15 K, x1 = 1 | 0.795
298.15 K, x1 = 0.0496 | 0.556
298.15 K, x1 = 0.0996 | 0.558
298.15 K, x1 = 0.1985 | 0.574
298.15 K, x1 = 0.2944 | 0.588
298.15 K, x1 = 0.4014 | 0.603
298.15 K, x1 = 0.4975 | 0.615
298.15 K, x1 = 0.6068 | 0.637
298.15 K, x1 = 0.7087 | 0.658
298.15 K, x1 = 0.8365 | 0.688
298.15 K, x1 = 0.9091 | 0.71
298.15 K, x1 = 0.9598 | 0.731
298.15 K, x1 = 1 | 0.749
303.15 K, x1 = 0.049 | 0.518
303.15 K, x1 = 0.0966 | 0.524
303.15 K, x1 = 0.1958 | 0.537
303.15 K, x1 = 0.2824 | 0.548
303.15 K, x1 = 0.3914 | 0.563
303.15 K, x1 = 0.4936 | 0.578
303.15 K, x1 = 0.581 | 0.592
303.15 K, x1 = 0.6945 | 0.612
303.15 K, x1 = 0.7349 | 0.62
303.15 K, x1 = 0.8512 | 0.645
303.15 K, x1 = 0.9214 | 0.663
303.15 K, x1 = 1 | 0.699
313.15 K, x1 = 0.0509 | 0.456
313.15 K, x1 = 0.0999 | 0.46
313.15 K, x1 = 0.2009 | 0.475
313.15 K, x1 = 0.2981 | 0.49
313.15 K, x1 = 0.4009 | 0.505
313.15 K, x1 = 0.5056 | 0.524
313.15 K, x1 = 0.6062 | 0.543
313.15 K, x1 = 0.7033 | 0.561
313.15 K, x1 = 0.8055 | 0.584
313.15 K, x1 = 0.902 | 0.603
313.15 K, x1 = 0.9448 | 0.61
313.15 K, x1 = 1 | 0.623

CCO [ethanol]
[2]
Settings | mass density [kg/m3] | viscosity [mPa·s]
293.15 K | – | 1.194
298.15 K | 785 | 1.105
303.15 K | – | 0.972
313.15 K | – | 0.826

CCO [ethanol] + CCOC(=O)OCC
[1], x2 = 0
Settings | viscosity [mPa·s]
293.15 K | 1.194
298.15 K | 1.105
303.15 K | 0.972
313.15 K | 0.826

CO [methanol]
[2]
Settings | mass density [kg/m3] | viscosity [mPa·s]
293.15 K | – | 0.591
298.15 K | 786.6 | 0.553
303.15 K | – | 0.514
313.15 K | – | 0.45

CO [methanol] + CCOC(=O)OCC
[1], x2 = 0
Settings | viscosity [mPa·s]
293.15 K | 0.591
298.15 K | 0.553
303.15 K | 0.514
313.15 K | 0.45

CCCCCO [pentan-1-ol]
[2]
Settings | mass density [kg/m3] | viscosity [mPa·s]
293.15 K | – | 3.979
298.15 K | 810.9 | 3.347
303.15 K | – | 2.932
313.15 K | – | 2.256

CCCCCO [pentan-1-ol] + CCOC(=O)OCC
[1], x2 = 0
Settings | viscosity [mPa·s]
293.15 K | 3.979
298.15 K | 3.347
303.15 K | 2.932
313.15 K | 2.256

CCCO [propan-1-ol]
[2]
Settings | mass density [kg/m3] | viscosity [mPa·s]
293.15 K | – | 2.198
298.15 K | 799.5 | 1.97
303.15 K | – | 1.707
313.15 K | – | 1.361

CCCO [propan-1-ol] + CCOC(=O)OCC
[1], x2 = 0
Settings | viscosity [mPa·s]
293.15 K | 2.198
298.15 K | 1.97
303.15 K | 1.707
313.15 K | 1.361

CC(C)O [propan-2-ol]
[2]
Settings | mass density [kg/m3] | viscosity [mPa·s]
293.15 K | – | 2.386
298.15 K | 780.9 | 2.098
303.15 K | – | 1.763
313.15 K | – | 1.325

CC(C)O [propan-2-ol] + CCOC(=O)OCC
[1], x2 = 0
Settings | viscosity [mPa·s]
293.15 K | 2.386
298.15 K | 2.098
303.15 K | 1.763
313.15 K | 1.325
